Results as given in patent US9598424B2 (Takeda Pharmaceutical Company Limited, priority 2014, dated 2017).

Assays:
Full length human TBK1 = biological target: T1, Full length human TBK1 (Homo sapiens, UniProt Q9UHD2); assay: Inhibition of TBK1 Enzyme (Caliper microfluidic assay); format: biochemical; settings: 25 μM ATP, 60 min at RT; -log(IC50), IC50 molar; read-out: TBK1 Inhibition (pIC50) (converted)
T1 construct: Full length human TBK1 with an N-terminal His-tag; His-tag (N); made in house; host or cells: Sf9 insect cells (baculovirus, pFastBac1)
T1 sequence (Q9UHD2 1-729): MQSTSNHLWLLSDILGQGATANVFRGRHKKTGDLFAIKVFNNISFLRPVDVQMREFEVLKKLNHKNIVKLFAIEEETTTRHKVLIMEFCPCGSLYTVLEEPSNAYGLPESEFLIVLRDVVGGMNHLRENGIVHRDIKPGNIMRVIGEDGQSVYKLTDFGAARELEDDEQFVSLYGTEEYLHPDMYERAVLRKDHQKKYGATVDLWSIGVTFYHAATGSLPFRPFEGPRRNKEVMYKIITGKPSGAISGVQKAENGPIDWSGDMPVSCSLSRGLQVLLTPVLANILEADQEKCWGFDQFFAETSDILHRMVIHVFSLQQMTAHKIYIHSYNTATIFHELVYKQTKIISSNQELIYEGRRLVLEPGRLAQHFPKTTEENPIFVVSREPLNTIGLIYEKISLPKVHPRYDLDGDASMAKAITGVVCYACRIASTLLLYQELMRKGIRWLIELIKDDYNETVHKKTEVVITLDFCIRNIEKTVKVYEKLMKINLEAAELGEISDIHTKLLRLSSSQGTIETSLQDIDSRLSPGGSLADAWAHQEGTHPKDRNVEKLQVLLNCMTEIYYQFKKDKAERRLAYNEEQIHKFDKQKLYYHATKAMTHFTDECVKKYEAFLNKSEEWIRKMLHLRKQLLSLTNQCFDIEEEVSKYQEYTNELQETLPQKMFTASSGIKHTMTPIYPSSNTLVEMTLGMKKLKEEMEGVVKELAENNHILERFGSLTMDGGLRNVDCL
Method in brief: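 Enzyme: His-tagged full-length TBK1 expressed in Sf9. Reaction 60 min at RT in 20 mM Hepes pH 7.4, 10 mM MgCl2, 1 mM EDTA, 0.01% Brij-L23, 1 mM DTT, with 5FAM-peptide (added at 1 μM) and TBK1/ATP mix (added at 3 nM/25 μM), then EDTA-quenched. Conversion measured by microfluidic separation; 11-point 2.5-fold series fit to pIC50.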

TBK1 = biological target: T2, TBK1 (Homo sapiens, UniProt Q9UHD2); assay: Inhibition of TBK1 in Cells (TLR3 driven ISRE β-lactamase reporter assay); format: cell-based; settings: poly IC-LMW stimulation 16 hrs; -log(EC50), EC50 molar; read-out: Inhibition of TBK1 in cells pEC50 (EC) (converted)
T2 construct: host or cells: RA1-ISRE beta-lactamase reporter cells
T2 sequence (Q9UHD2 1-729): T1 sequence (Q9UHD2 1-729)
Method in brief: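 RA1-ISRE β-lactamase reporter cells (50,000/well) treated with 11-point 2.5-fold compound dilutions and stimulated with 0.15 mg/ml poly IC-LMW for 16 hrs. Reporter read by CCF4-AM FRET; EC50 from non-linear fit of percent inhibition, reported as pEC50 (molar).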

SMILES	IC50 (Full length human TBK1)	EC50 (TBK1)
O=C(Nc1cn2cc(-c3csc(C(=O)N4CC(F)(F)C4)c3)ccc2n1)C1CC1 [Example 77, N-(6-(5-(3,3-difluoroazetidine-1-carbonyl)thiophen-3-yl)imidazo[1,2-a]pyridin-2-yl)cyclopropanecarboxamide]	63.1 nM	1660 nM
O=C(NCCC(F)(F)F)c1cc(-c2ccc3nc(NC(=O)C4CC4)cn3c2)cs1 [Example 78, 4-(2-(cyclopropanecarboxamido)imidazo[1,2-a]pyridin-6-yl)-N-(3,3,3-trifluoropropyl)thiophene-2-carboxamide]	10 nM	479 nM
CC(=O)N1CCC(NC(=O)c2cc(-c3ccc4nc(NC(=O)C5CC5)cn4c3)cs2)C1 (stereo not shown) [Example 79, N-(1-acetylpyrrolidin-3-yl)-4-(2-(cyclopropanecarboxamido)imidazo[1,2-a]pyridin-6-yl)thiophene-2-carboxamide]	79.4 nM	22900 nM
C[C@H](NC(=O)c1cc(-c2ccc3nc(NC(=O)C4CC4)cn3c2)cs1)C(F)(F)F [Example 80, (S)-4-(2-(cyclopropanecarboxamido)imidazo[1,2-a]pyridin-6-yl)-N-(1,1,1-trifluoropropan-2-yl)thiophene-2-carboxamide]	63.1 nM	1380 nM
C[C@@H](NC(=O)c1cc(-c2ccc3nc(NC(=O)C4CC4)cn3c2)cs1)C(F)(F)F [Example 81, (R)-4-(2-(cyclopropanecarboxamido)imidazo[1,2-a]pyridin-6-yl)-N-(1,1,1-trifluoropropan-2-yl)thiophene-2-carboxamide]	2.51 nM	44.7 nM
COCCN(CC(F)(F)F)C(=O)c1cc(-c2ccc3nc(NC(=O)C4CC4)cn3c2)cs1 [Example 83, 4-(2-(cyclopropanecarboxamido)imidazo[1,2-a]pyridin-6-yl)-N-(2-methoxyethyl)-N-(2,2,2-trifluoroethyl)thiophene-2-carboxamide]	20 nM	646 nM
O=C(NC1COCC1O)c1cc(-c2ccc3nc(NC(=O)C4CC4)cn3c2)cs1 (stereo not shown) [Example 84, 4-(2-(cyclopropanecarboxamido)imidazo[1,2-a]pyridin-6-yl)-N-(4-hydroxytetrahydrofuran-3-yl)thiophene-2-carboxamide]	31.6 nM	2820 nM
O=C(NC1CCCC1=O)c1cc(-c2ccc3nc(NC(=O)C4CC4)cn3c2)cs1 (stereo not shown) [Example 85, 4-(2-(cyclopropanecarboxamido)imidazo[1,2-a]pyridin-6-yl)-N-(2-oxocyclopentyl)thiophene-2-carboxamide]	100 nM	4070 nM
O=C(N[C@H]1CCOC1)c1nc(-c2ccc3nc(NC(=O)C4CC4)cn3c2)cs1 [Example 87, (S)-4-(2-(cyclopropanecarboxamido)imidazo[1,2-a]pyridin-6-yl)-N-(tetrahydrofuran-3-yl)thiazole-2-carboxamide]	63.1 nM	2880 nM
O=C(N[C@H]1CCC[C@H]1O)c1nc(-c2ccc3nc(NC(=O)C4CC4)cn3c2)cs1 [Example 89, 4-(2-(cyclopropanecarboxamido)imidazo[1,2-a]pyridin-6-yl)-N-((1S, 2R)-2-hydroxycyclopentyl)thiazole-2-carboxamide]	31.6 nM	1020 nM
O=C(NC1CCCC1(F)F)c1nc(-c2ccc3nc(NC(=O)C4CC4)cn3c2)cs1 (stereo not shown) [Example 90, 4-(2-(cyclopropanecarboxamido)imidazo[1,2-a]pyridin-6-yl)-N-(2,2-difluorocyclopentyl)thiazole-2-carboxamide]	39.8 nM	1020 nM
O=C(NC1CCCC1=O)c1nc(-c2ccc3nc(NC(=O)C4CC4)cn3c2)cs1 (stereo not shown) [Example 91, 4-(2-(cyclopropanecarboxamido)imidazo[1,2-a]pyridin-6-yl)-N-(2-oxocyclopentyl)thiazole-2-carboxamide]	200 nM	5130 nM

Now from value to compound:

IC50 (Full length human TBK1)	EC50 (TBK1)	SMILES
50.1 nM	1120 nM	O=C(NCCC(F)(F)F)c1nc(-c2ccc3nc(NC(=O)C4CC4)cn3c2)cs1 [Example 92, 4-(2-(cyclopropanecarboxamido)imidazo[1,2-a]pyridin-6-yl)-N-(3,3,3-trifluoropropyl)thiazole-2-carboxamide]
7.94 nM	110 nM	O=C(Nc1cn2cc(-c3csc(C(=O)N4CCC[C@@H]4C(F)(F)F)n3)ccc2n1)C1CC1 [Example 93, (R)-N-(6-(2-(2-(trifluoromethyl)pyrrolidine-1-carbonyl)thiazol-4-yl)imidazo[1,2-a]pyridin-2-yl)cyclopropanecarboxamide]
200 nM	5500 nM	O=C(NC1CCOC1=O)c1nc(-c2ccc3nc(NC(=O)C4CC4)cn3c2)cs1 (stereo not shown) [Example 94, 4-(2-(cyclopropanecarboxamido)imidazo[1,2-a]pyridin-6-yl)-N-(2-oxotetrahydrofuran-3-yl)thiazole-2-carboxamide]
63.1 nM	851 nM	O=C(Nc1cn2cc(-c3csc(C(=O)N4CC(F)(F)C[C@H]4CO)n3)ccc2n1)C1CC1 [Example 96, (S)-N-(6-(2-(4,4-difluoro-2-(hydroxymethyl)pyrrolidine-1-carbonyl)thiazol-4-yl)imidazo[1,2-a]pyridin-2-yl)cyclopropanecarboxamide]
126 nM	1550 nM	COC1CCN(C(=O)c2nc(-c3ccc4nc(NC(=O)C5CC5)cn4c3)cs2)C1 (stereo not shown) [Example 97, N-(6-(2-(3-methoxypyrrolidine-1-carbonyl)thiazol-4-yl)imidazo[1,2-a]pyridin-2-yl)cyclopropanecarboxamide]
200 nM	14500 nM	NC(=O)C1CCN(C(=O)c2nc(-c3ccc4nc(NC(=O)C5CC5)cn4c3)cs2)C1 (stereo not shown) [Example 98, 1-(4-(2-(cyclopropanecarboxamido)imidazo[1,2-a]pyridin-6-yl)thiazole-2-carbonyl)pyrrolidine-3-carboxamide]
200 nM	776 nM	N#CC1CN(C(=O)c2nc(-c3ccc4nc(NC(=O)C5CC5)cn4c3)cs2)C1 [Example 102, N-(6-(2-(3-cyanoazetidine-1-carbonyl)thiazol-4-yl)imidazo[1,2-a]pyridin-2-yl)cyclopropanecarboxamide]
79.4 nM	794 nM	CC1CCN(C(=O)c2nc(-c3ccc4nc(NC(=O)C5CC5)cn4c3)cs2)C1 (stereo not shown) [Example 103, N-(6-(2-(3-methylpyrrolidine-1-carbonyl)thiazol-4-yl)imidazo[1,2-a]pyridin-2-yl)cyclopropanecarboxamide]
5.01 nM	166 nM	C[C@@H](NC(=O)c1cc(-c2ccc3nc(NC(=O)C4CC4)cn3c2)n[nH]1)C(F)(F)F [Example 104, (R)-3-(2-(cyclopropanecarboxamido)imidazo[1,2-a]pyridin-6-yl)-N-(1,1,1-trifluoropropan-2-yl)-1H-pyrazole-5-carboxamide]
316 nM	5370 nM	O=C(Nc1cn2cc(-c3cc(C(=O)N4CCC(F)CC4)[nH]n3)ccc2n1)C1CC1 [Example 105, N-(6-(5-(4-fluoropiperidine-1-carbonyl)-1H-pyrazol-3-yl)imidazo[1,2-a]pyridin-2-yl)cyclopropanecarboxamide]
31.6 nM	589 nM	CN(CC(F)(F)F)C(=O)c1cc(-c2ccc3nc(NC(=O)C4CC4)cn3c2)n[nH]1 [Example 106, 3-(2-(cyclopropanecarboxamido)imidazo[1,2-a]pyridin-6-yl)-N-methyl-N-(2,2,2-trifluoroethyl)-1H-pyrazole-5-carboxamide]
